Experiments:
Assay type in all cases: functional
[1] = test system: Botrytis cinerea; assay: Curative fungicidal activity against Botryotinia fuckeliana infected cucumber plant at 7.8 ppm by foliar application
[2] = test system: Botrytis cinerea; assay: Curative fungicidal activity against Botryotinia fuckeliana infected cucumber plant at 31.3 ppm by foliar application
[3] = test system: Botrytis cinerea; assay: Preventive fungicidal activity against Botryotinia fuckeliana infected cucumber plant at 7.8 ppm by foliar application
[4] = test system: Botrytis cinerea; assay: Preventive fungicidal activity against Botryotinia fuckeliana infected cucumber plant at 31.3 ppm by foliar application
[5] = test system: Podosphaera fuliginea; assay: Curative fungicidal activity against Podosphaera fuliginea infected cucumber plant at 7.8 ppm by foliar application
[6] = test system: Podosphaera fuliginea; assay: Curative fungicidal activity against Podosphaera fuliginea infected cucumber plant at 31.3 ppm by foliar application
[7] = test system: Podosphaera fuliginea; assay: Preventive fungicidal activity against Podosphaera fuliginea infected cucumber plant at 7.8 ppm by foliar application
[8] = test system: Podosphaera fuliginea; assay: Preventive fungicidal activity against Podosphaera fuliginea infected cucumber plant at 31.3 ppm by foliar application
[9] = test system: Botrytis cinerea; assay: Fungicidal activity against Botryotinia fuckeliana infected cucumber plant at 31.3 ppm by foliar application
[10] = test system: Podosphaera fuliginea; assay: Fungicidal activity against Podosphaera fuliginea infected cucumber plant at 7.8 ppm by foliar application
[11] = test system: Botrytis cinerea; assay: Fungicidal activity against Botryotinia fuckeliana infected cucumber plant at 500 ppm by foliar application
[12] = test system: Podosphaera fuliginea; assay: Fungicidal activity against Podosphaera fuliginea infected cucumber plant at 125 ppm by foliar application
[13] = test system: Podosphaera fuliginea; assay: Fungicidal activity against Podosphaera fuliginea infected cucumber plant at 31.3 ppm by foliar application
[14] = test system: Podosphaera fuliginea; assay: Fungicidal activity against Podosphaera fuliginea infected cucumber plant at 500 ppm by foliar application
[15] = test system: Botrytis cinerea; assay: Fungicidal activity against Botryotinia fuckeliana infected cucumber plant at 125 ppm by foliar application
[16] = test system: Botrytis cinerea; assay: Fungicidal activity against Botryotinia fuckeliana infected cucumber plant at 7.8 ppm by foliar application

CO/N=C(/c1nnco1)c1ccccc1COc1ccc(Cl)cc1C
Activity [1]: 30% | Activity [2]: 50% | Activity [3]: 30% | Activity [4]: 65% | Activity [5]: 100% | Activity [6]: 100% | Activity [7]: 100% | Activity [8]: 100% | Activity [9]: <90% | Activity [10]: 90%

CO/N=C(\c1ccccc1COc1ccc(C)cc1)c1nccn1C
Activity [11]: <50% | Activity [10]: 90%

CO/N=C(\c1ccccc1COc1cccc(Cl)c1)c1nccn1C
Activity [11]: <50% | Activity [10]: 90%

CO/N=C(/c1nnco1)c1ccccc1COc1cccc(Cl)c1
Activity [11]: <50% | Activity [12]: 90%

CO/N=C(\c1ccccc1COc1ccccc1Cl)c1nccn1C
Activity [11]: <50% | Activity [10]: 90%

CO/N=C(/c1noc(C)n1)c1ccccc1COc1cc(C)ccc1C
Activity [11]: <50% | Activity [13]: 90%

CO/N=C(\c1ccccc1COc1cccc(C)c1)c1nccn1C
Activity [11]: <50% | Activity [12]: 90%

CO/N=C(\c1ccccc1COc1cc(C)ccc1C)c1ncnn1C
Activity [11]: <50% | Activity [14]: <90%

CO/N=C(\c1ccccc1COc1cc(C)ccc1C)c1snnc1C
Activity [11]: <50% | Activity [12]: 90%

CO/N=C(\c1ccccc1COc1ccccc1)c1nccn1C
Activity [11]: <50% | Activity [14]: 90%

CO/N=C(\c1ccccc1COc1ccccc1C)c1nccn1C
Activity [15]: <90% | Activity [10]: 90%

CO/N=C(\c1ccccc1COc1ccc(Cl)cc1)c1nccn1C
Activity [11]: <50% | Activity [10]: 90%

CO/N=C(/c1ncon1)c1ccccc1COc1cc(C)ccc1C
Activity [11]: <50% | Activity [13]: 90%

CO/N=C(/c1nnco1)c1ccccc1COc1ccccc1
Activity [11]: <50% | Activity [13]: 90%

CO/N=C(/c1nnco1)c1ccccc1COc1ccc(Cl)cc1
Activity [11]: <50% | Activity [14]: 90%

CON=C(c1ccccc1COc1cc(C)ccc1C)c1ccnn1C (mixture of isomers)
Activity [11]: <50% | Activity [14]: <90%

CON=C(c1cnco1)c1ccccc1COc1cc(C)ccc1C (mixture of isomers)
Activity [11]: <50% | Activity [14]: 90%

CO/N=C(/c1nnco1)c1ccccc1COc1ccccc1Cl
Activity [11]: <50% | Activity [13]: 90%

CON=C(c1cccs1)c1ccccc1COc1cc(C)ccc1C (mixture of isomers)
Activity [11]: <50% | Activity [14]: <90%

CO/N=C(\c1ccccc1COc1cc(C)ccc1C)c1nnnn1C
Activity [11]: <50% | Activity [14]: <90%

CO/N=C(/c1nnco1)c1ccccc1COc1cc(Cl)ccc1Cl
Activity [11]: <50% | Activity [10]: 90%

CO/N=C(/c1nnco1)c1ccccc1COc1cc(C)ccc1C
Activity [15]: <90% | Activity [10]: 90%

CON=C(c1ccccc1COc1cc(C)ccc1C)c1nccn1C (mixture of isomers)
Activity [9]: <90% | Activity [10]: 90%

CO/N=C(/c1ccccc1COc1ccc(Cl)cc1C)c1nccn1C
Activity [11]: <50% | Activity [14]: 90%

CO/N=C(\c1ccccc1COc1cc(Cl)ccc1Cl)c1nccn1C
Activity [11]: <50% | Activity [10]: 90%

CO/N=C(/c1ncno1)c1ccccc1COc1cc(C)ccc1C
Activity [11]: <50% | Activity [14]: <90%

CO/N=C(/c1nnco1)c1ccccc1COc1ccccc1C
Activity [15]: <90% | Activity [10]: 90%

CO/N=C(/c1ncn[nH]1)c1ccccc1COc1cc(C)ccc1C
Activity [11]: <50% | Activity [14]: <90%

CNC(=O)/C(=N/OC)c1ccccc1Oc1ccccc1 [METOMINOSTROBIN]
Activity [1]: 30% | Activity [2]: 40% | Activity [3]: 30% | Activity [4]: 55% | Activity [5]: 70% | Activity [6]: 97% | Activity [7]: 70% | Activity [8]: 100%

CO/N=C(/c1ccon1)c1ccccc1COc1ccc(C)cc1C
Activity [1]: 30% | Activity [2]: 30% | Activity [3]: 20% | Activity [4]: 40% | Activity [5]: 100% | Activity [6]: 100% | Activity [7]: 100% | Activity [8]: 100%

CO/N=C(\c1ccccc1COc1ccccc1OC)c1nccn1C
Activity [11]: <50% | Activity [14]: 90%

CO/N=C(/c1nnco1)c1ccccc1COc1cccc(C)c1
Activity [11]: <50% | Activity [12]: 90%

CO/N=C(\c1ccccc1COc1ccc(Cl)cc1C)c1nccn1C
Activity [1]: 55% | Activity [2]: 55% | Activity [3]: 60% | Activity [4]: 55% | Activity [5]: 100% | Activity [6]: 100% | Activity [7]: 100% | Activity [8]: 100% | Activity [16]: <90% | Activity [10]: 90%

CO/N=C(/c1nnc(C)o1)c1ccccc1COc1cc(C)ccc1C
Activity [11]: <50% | Activity [10]: 90%

CO/N=C(\c1nnco1)c1ccccc1COc1ccc(Cl)cc1C
Activity [11]: <50% | Activity [12]: 90%

CO/N=C(/c1nnco1)c1ccccc1COc1ccc(Cl)cc1Cl
Activity [11]: <50% | Activity [10]: 90%

CO/N=C(/c1nnco1)c1ccccc1COc1ccccc1OC
Activity [11]: <50% | Activity [14]: 90%

CO/N=C(\c1ccccc1COc1ccc(Cl)cc1Cl)c1nccn1C
Activity [11]: <50% | Activity [10]: 90%

CON=C(c1cc(C)ns1)c1ccccc1COc1cc(C)ccc1C (mixture of isomers)
Activity [11]: <50% | Activity [14]: <90%

CON=C(c1nccs1)c1ccccc1COc1cc(C)ccc1C (mixture of isomers)
Activity [11]: <50% | Activity [14]: <90%

CON=C(c1ccco1)c1ccccc1COc1cc(C)ccc1C (mixture of isomers)
Activity [11]: <50% | Activity [14]: 90%

Source: ChEMBL document CHEMBL3045270, “Synthesis and Fungicidal Activities of Heterocyclic Compounds Having -Methoxyimino-2-phenoxymethylbenzyl Group” (2000)
